Laboratory results from ChEMBL document CHEMBL1201862, “PubChem BioAssay data set” (2004).
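Where inhibition never reached the appropriate level, the endpoint shown equals the highest concentration tested. Otherwise, values were interpolated linearly from a five-concentration, 48-hour dose response in 96-well plates. GI50 marks 50% less growth.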 Calls of active or inactive are those of the source. Cut-off read from the data, not from the text of the source: active = GI50 up to about 1.1 µM and inactive = higher. Numbered stars: 1 amine (or outer) side, 2 acyl side, 3 side chain; on linkers, the order of the positions; unused ones are H or OH. Square brackets hold non-standard residues; d marks the D form. Peptide text beside a SMILES is read from it. * marks the point of attachment. X30 = CC(=O)N(C)SCC(N[*:1])C(=O)[*:2]; Cbz = O=C(OCc1ccccc1)*; Bn = c1ccc(C*)cc1

What was measured:
Assay in all cases: inhibition of tumour cell growth, NCI panel, 48 h
NCI-H460 = test system: NCI-H460
KM12 = test system: KM12
MOLT-4 = test system: MOLT-4
SF-268 = test system: SF-268
MCF7 = test system: MCF7
MDA-MB-435 = test system: MDA-MB-435
SR = test system: SR
K562 = test system: K562
HCC 2998 = test system: HCC 2998
HT-29 = test system: HT-29
SK-MEL-5 = test system: SK-MEL-5
RPMI-8226 = test system: RPMI-8226
HL-60 = test system: HL-60
UACC-257 = test system: UACC-257
IGROV-1 = test system: IGROV-1
Malme-3M = test system: Malme-3M
SK-OV-3 = test system: SK-OV-3
SK-MEL-2 = test system: SK-MEL-2
ACHN = test system: ACHN
SF-539 = test system: SF-539

Row | SMILES | GI50 (NCI-H460) | GI50 (KM12) | GI50 (MOLT-4) | GI50 (SF-268) | GI50 (MCF7) | GI50 (MDA-MB-435) | GI50 (SR) | GI50 (K562) | GI50 (HCC 2998) | GI50 (HT-29) | GI50 (SK-MEL-5) | GI50 (RPMI-8226) | GI50 (HL-60) | GI50 (UACC-257) | GI50 (IGROV-1) | GI50 (Malme-3M) | GI50 (SK-OV-3) | GI50 (SK-MEL-2) | GI50 (ACHN) | GI50 (SF-539)
1 | CCc1n[nH]c(=O)n1CC | > 100 µM (inactive) | > 100 µM (inactive) | > 100 µM (inactive) | > 100 µM (inactive) | > 100 µM (inactive) | > 100 µM (inactive) | > 100 µM (inactive) | > 100 µM (inactive) | > 100 µM (inactive) | > 100 µM (inactive) | > 100 µM (inactive) | > 100 µM (inactive) | 21.7 µM (inactive) | > 100 µM (inactive) | > 100 µM (inactive) | > 100 µM (inactive) | > 100 µM (inactive) | > 100 µM (inactive) | > 100 µM (inactive) | > 100 µM (inactive)
2 | CC(=O)N1CN2C(=O)CCC2c2ccccc21 (stereo not given) | > 100 µM (inactive) | > 100 µM (inactive) | > 100 µM (inactive) | > 100 µM (inactive) | > 100 µM (inactive) | > 100 µM (inactive) | 0.165 µM (active) | > 100 µM (inactive) | > 100 µM (inactive) | > 100 µM (inactive) | > 100 µM (inactive) | > 100 µM (inactive) | > 10 µM (inactive) | > 100 µM (inactive) | > 100 µM (inactive) | > 100 µM (inactive) | > 100 µM (inactive) | > 100 µM (inactive) | > 100 µM (inactive) | > 100 µM (inactive)
3 | COc1ccc(C(O)CNC(=O)c2ccccc2)cc1 (stereo not given) | > 100 µM (inactive) | > 100 µM (inactive) | > 100 µM (inactive) | > 100 µM (inactive) | > 100 µM (inactive) | > 100 µM (inactive) | > 100 µM (inactive) | > 100 µM (inactive) | > 100 µM (inactive) | > 100 µM (inactive) | > 100 µM (inactive) | > 100 µM (inactive) | > 100 µM (inactive) | > 100 µM (inactive) | > 100 µM (inactive) | > 100 µM (inactive) | > 100 µM (inactive) | > 100 µM (inactive) | > 100 µM (inactive) | > 100 µM (inactive)
4 | COc1cccc(CCn2c(N)c(-c3cc(Cl)cc(Cl)c3)c3ccc([N+](=O)[O-])cc3c2=O)c1 | 3.04 µM (inactive) | 3.47 µM (inactive) | 1.88 µM (inactive) | 5.86 µM (inactive) | 4.62 µM (inactive) | 3.57 µM (inactive) | 0.897 µM (active) | 1.75 µM (inactive) | 3.51 µM (inactive) | 5.52 µM (inactive) | 2.07 µM (inactive) | 0.65 µM (active) | 0.811 µM (active) | 3.33 µM (inactive) | 3.33 µM (inactive) | 2.83 µM (inactive) | 8.89 µM (inactive) | 3.9 µM (inactive) | 3.26 µM (inactive) | 77.3 µM (inactive)
5 | Cc1ccc2c3c1O[C@H]1c4[nH]c5ccccc5c4C[C@@]4(O)[C@@H](C2)N(CC2CC2)CC[C@]314 | 15.2 µM (inactive) | 17 µM (inactive) | 12.2 µM (inactive) | 13.6 µM (inactive) | 16.4 µM (inactive) | 13.7 µM (inactive) | 8.89 µM (inactive) | 15.5 µM (inactive) | 3.78 µM (inactive) | 4.42 µM (inactive) | 14.1 µM (inactive) | 11.2 µM (inactive) | 5.3 µM (inactive) | 16.7 µM (inactive) | 17.4 µM (inactive) | 14.5 µM (inactive) | 16.4 µM (inactive) | 17.1 µM (inactive) | 16.6 µM (inactive) | 16.5 µM (inactive)
6 | CC(=O)N(C)SCC(NC(=O)C(Cc1ccccc1)NC(=O)OCc1ccccc1)C(=O)NC(Cc1ccccc1)C(=O)NC(Cc1c[nH]c2ccccc12)C(=O)NC(CCCCNC(=O)OCc1ccccc1)C(=O)NC(C(=O)NC(CSN(C)C(C)=O)C(=O)NC(C(N)=O)C(C)OCc1ccccc1)C(C)OCc1ccccc1 (stereo not given) (Cbz-F[X30]FWK(Cbz)T(Bn)[X30]T(Bn)-NH2; configuration not given here) | > 100 µM (inactive) | 40.9 µM (inactive) | > 100 µM (inactive) | > 100 µM (inactive) | 86.5 µM (inactive) | > 100 µM (inactive) | > 100 µM (inactive) | > 100 µM (inactive) | > 100 µM (inactive) | > 100 µM (inactive) | > 100 µM (inactive) | 74.3 µM (inactive) | > 100 µM (inactive) | > 100 µM (inactive) | > 100 µM (inactive) | > 100 µM (inactive) | 1.63 µM (inactive) | > 100 µM (inactive) | > 100 µM (inactive) | > 100 µM (inactive)
